Test results from patent publication US5571816A, “Pyrimidines” (Hoechst Aktiengesellschaft, priority 1992, dated 1996).
Where a name gives a salt, the structure may show the parent alone. Read-outs that look alike come from different tables or passages of the source. Blank lines part the entries; values can stand above or below the compound they belong to.

Key:
[1] = Solubility in water of salts (and free bases); format: physicochemical; conditions: for solubility: water; for solubility in water, in words: categories of the Deutsches Arzneibuch
serum lipoproteins = assay: Effect on serum lipoproteins of normolipemic male rats in a subchronic experiment; format: in vivo; conditions: Rattus norvegicus, po, by stomach tube, 7 administrations; for change in vivo at 10 mg/kg: 10 mg/kg/day; for change in vivo at 30 mg/kg: 30 mg/kg/day; for change in vivo at 3 mg/kg: 3 mg/kg/day
Method: 3. In vivo, the increased LDL receptor activity in experimental animals is reflected by reduction in the lipoprotein fractions which can be metabolized by the LDL receptor (apoB/E receptor), i.e. a reduction in the LDL and VLDL levels is observed. The following test was carried out:
Effect on serum lipoproteins of normolipemic male rats in a subchronic experiment
Groups of in each case 10 male rats of the HOE: WISKf (SPF 71) strain with an initial weight above 180 g received once a day (in the morning) the test product or the comparison product in 1% aqueous ®Tylose MH 300 solution by stomach tube (0.5 ml/100 g of body weight); the control group in each case received only the vehicle. The last (7th) administration took place 24 hours before removal of blood and sacrifice. There was free access to food and water during the test. The food was withdrawn 24 hours before the removal of blood.
The serum from all 10 rats in a group was pooled for the analysis of the serum lipoproteins. The serum lipoproteins were separated with a preparative ultracentrifuge (KONTRON TGA 65, Rotor BECKMAN 50.4 Ti).
The following conditions specified by Koga, S., Horwitz, D. L., and Scanu, A. M., Journal of Lipid Research 10, 577 (1969) and Havel, R. J., Eder, H. A., and Bragdon, H. H., J. Clin. Invest. 34, 1345 (1955) were used to separate VLDL and LDL: 1. VLDL: Density<1.006, 40,000 rpm for 16 hours 2. LDL: Density 1.006-1.04, 40,000 rmp for 16 hours
Test kits from BOEHRINGER/Mannheim were used for the enzymatic determination of cholesterol and triglycerides in the separated lipoprotein fractions (cf. Siedel, J., Schlumberger, H., Klose, S., Ziegenhorn, J. and Wahlefeld, A. W., J. Clin. Chem. Clin. Biochem. 19, 838 (1981) and Wahlefeld, A. W., in: H. O. Bergmeier: Methoden der enzymatischen Analyse (Methods of Enzymatic Analysis), 2nd edition, Volume II, Verlag Chemie 1974, page 1878). The proteins were determined by the method of Lowry (Lowry, O. H., Roseborough, N. H., Farr, A. L. and Randell, R. J., J. Biol. Chem. 193, 265 (1951)).
Clofibrate was used as comparison product.

[2] = Table 2, salts of compounds I, temp. by No. [°C]: 1 25.5, 2 23.0, 3 22.4, 4 22.4, 5 22.0, 6 25.0, 7 25.5, 8 25.5, 9 25.5, 10 23.5, 11 23.5, 12 25.0, 13 24.0, 14 23.0, 15 22.0, 16 24.5, 17 22.5, 18 22.0, read-out: Solubility in water, Concentration in % by wt.
[3] = read-out: Serum LDL cholesterol, % change from control at end of treatment
[4] = read-out: Serum LDL protein, % change from control at end of treatment
[5] = read-out: Serum VLDL cholesterol, % change from control at end of treatment
[6] = read-out: Serum VLDL protein, % change from control at end of treatment
[7] = read-out: Serum VLDL triglycerides, % change from control at end of treatment
[8] = Table 2, salts of compounds I, temp. by No. [°C]: 1 25.5, 2 23.0, 3 22.4, 4 22.4, 5 22.0, 6 25.0, 7 25.5, 8 25.5, 9 25.5, 10 23.5, 11 23.5, 12 25.0, 13 24.0, 14 23.0, 15 22.0, 16 24.5, 17 22.5, 18 22.0
[9] = Table 1, N-H analogs, temp. by No. [°C]: 1 25.0, 2 23.0, 3 26.2, 4 25.1, 5 25.2, 6 24.1, 7 24.5, 8 24.2, 9 24.2, 10 25.7, 11 25.8, read-out: Solubility in water, Concentration in % by wt.
[10] = Table 1, N-H analogs, temp. by No. [°C]: 1 25.0, 2 23.0, 3 26.2, 4 25.1, 5 25.2, 6 24.1, 7 24.5, 8 24.2, 9 24.2, 10 25.7, 11 25.8, read-out: Solubility in water, Molarity × 10^-3
[11] = Table 1, N-H analogs, temp. by No. [°C]: 1 25.0, 2 23.0, 3 26.2, 4 25.1, 5 25.2, 6 24.1, 7 24.5, 8 24.2, 9 24.2, 10 25.7, 11 25.8

SMILES: CCN(C(=O)c1cnc(N2CC(C)(C)NC2=O)nc1N)c1cc(C(F)(F)F)ccc1F [Example 32]
solubility [1, 2]: 10.1 mg/mL
change in vivo at 10 mg/kg (serum lipoproteins; [3]): -54%
change in vivo at 10 mg/kg (serum lipoproteins; [4]): -36%
change in vivo at 10 mg/kg (serum lipoproteins; [5]): -85%
change in vivo at 10 mg/kg (serum lipoproteins; [6]): -73%
change in vivo at 10 mg/kg (serum lipoproteins; [7]): -68%
change in vivo at 30 mg/kg (serum lipoproteins; [3]): -76%
change in vivo at 30 mg/kg (serum lipoproteins; [4]): -49%
change in vivo at 30 mg/kg (serum lipoproteins; [5]): -100%
change in vivo at 30 mg/kg (serum lipoproteins; [6]): -39%
change in vivo at 30 mg/kg (serum lipoproteins; [7]): -80%

SMILES: CC(C)N(C(=O)c1cnc(N2CC(C)(C)NC2=O)nc1N)c1ccc(F)c(C(F)(F)F)c1 [Example 35]
1 part by mass dissolves in ... parts by H2O [1, 8]: 28.6 parts by H2 O
solubility [1, 2]: 33.8 mg/mL
change in vivo at 30 mg/kg (serum lipoproteins; [3]): 46%
change in vivo at 30 mg/kg (serum lipoproteins; [4]): -35%
change in vivo at 30 mg/kg (serum lipoproteins; [5]): -79%
change in vivo at 30 mg/kg (serum lipoproteins; [6]): -69%
change in vivo at 30 mg/kg (serum lipoproteins; [7]): -55%

SMILES: CN(C(=O)c1cnc(N2CC(C)(C)NC2=O)nc1N)c1cc(C(F)(F)F)ccc1F [Example 28]
1 part by mass dissolves in ... parts by H2O [1, 8]: 72.7 parts by H2 O
solubility [1, 2]: 13.6 mg/mL
change in vivo at 3 mg/kg (serum lipoproteins; [3]): 1%
change in vivo at 3 mg/kg (serum lipoproteins; [4]): -26%
change in vivo at 3 mg/kg (serum lipoproteins; [5]): -2%
change in vivo at 3 mg/kg (serum lipoproteins; [6]): -29%
change in vivo at 10 mg/kg (serum lipoproteins; [3]): -33%
change in vivo at 10 mg/kg (serum lipoproteins; [4]): -68%
change in vivo at 10 mg/kg (serum lipoproteins; [5]): -74%
change in vivo at 10 mg/kg (serum lipoproteins; [6]): 41%
change in vivo at 10 mg/kg (serum lipoproteins; [7]): 46%
change in vivo at 30 mg/kg (serum lipoproteins; [3]): -75%
change in vivo at 30 mg/kg (serum lipoproteins; [4]): -62%
change in vivo at 30 mg/kg (serum lipoproteins; [5]): -79%
change in vivo at 30 mg/kg (serum lipoproteins; [6]): -49%
change in vivo at 30 mg/kg (serum lipoproteins; [7]): -56%

SMILES: CC1(C)CN(c2ncc(C(=O)Nc3cccc(C(F)(F)F)c3)c(N)n2)C(=O)N1 [No. 1 (Table 1), hydrochloride of 4-amino-2-(4,4-dimethylimidazolidin-2-on-1-yl)pyrimidine-5-carboxylic acid N-(3-trifluoromethylphenyl)amide, reference compound]
solubility ([1]; 23° C., read-out: 1 part by mass dissolves in parts of water (converted)): 0.4 mg/mL
solubility ([1]; 23° C., read-out: solution that can be prepared in water): 0.93 mM
solubility [1, 9]: 0.4 mg/mL
solubility [1, 10]: 0.93 mM

SMILES: CC1(C)CN(c2ncc(C(=O)N(CC3CC3)c3cc(C(F)(F)F)ccc3F)c(N)n2)C(=O)N1 [Example 61, 4-amino-2-(4,4-dimethyl-2-oxo-1-imidazolidinyl)pyrimidine-5-carboxylic acid N-cyclopropylmethyl-N-(2-fluoro-5-trifluoromethylphenyl)amide]
1 part by mass dissolves in ... parts by H2O [1, 8]: 65.8 parts by H2 O
solubility [1, 2]: 15 mg/mL

SMILES: CC1(C)CN(c2ncc(C(=O)Nc3ccc(F)c(C(F)(F)F)c3)c(N)n2)C(=O)N1 [No. 3 (Table 1), reference compound]
1 part by mass dissolves in ... parts of H2O [1, 11]: 703 parts of H2 O
solubility [1, 9]: 1.4 mg/mL
solubility [1, 10]: 3.17 mM

SMILES: COc1ccc(C(F)(F)F)cc1NC(=O)c1cnc(N2CC(C)(C)NC2=O)nc1N [No. 6 (Table 1), reference compound]
1 part by mass dissolves in ... parts of H2O [1, 11]: 75 parts of H2 O
solubility in water, in words [1]: sparingly soluble
solubility [1, 9]: 13.2 mg/mL
solubility [1, 10]: 28.9 mM

SMILES: COc1ccc(NC(=O)c2cnc(N3CC(C)(C)NC3=O)nc2N)cc1C(F)(F)F [No. 7 (Table 1), reference compound]
1 part by mass dissolves in ... parts of H2O [1, 11]: 554 parts of H2 O
solubility [1, 9]: 1.8 mg/mL
solubility [1, 10]: 3.92 mM

SMILES: CCCCCN(C(=O)c1cnc(N2CC(C)(C)NC2=O)nc1N)c1cccc(C(F)(F)F)c1 [Example 47, 4-amino-2-(4,4-dimethyl-2-oxo-1-imidazolidinyl)pyrimidine-5-carboxylic acid N-pentyl-N-(3-trifluoromethylphenyl)amide hydrochloride]
1 part by mass dissolves in ... parts by H2O [1, 8]: 51.3 parts by H2 O
solubility [1, 2]: 18.7 mg/mL

SMILES: CC1(C)CN(c2ncc(C(=O)Nc3cccc(C(F)(F)F)c3)c(N)n2)C(=O)N1 [4-amino-2-(4,4-dimethylimidazolidin-2-on-1-yl)pyrimidine-5-carboxylic acid N-(3-trifluoromethylphenyl)amide, reference compound]
solubility in water, in words [1]: exceptionally slightly soluble

SMILES: CCCC1(C)CN(c2ncc(C(=O)Nc3cccc(C(F)(F)F)c3)c(N)n2)C(=O)N1 (stereo not drawn) [No. 10 (Table 1), reference compound]
1 part by mass dissolves in ... parts of H2O [1, 11]: 255 parts of H2 O
solubility [1, 9]: 3.9 mg/mL
solubility [1, 10]: 8.54 mM

Now from value to compound, other results behind:

1 part by mass dissolves in ... parts by H2O [1, 8]: 53.3 parts by H2 O
solubility [1, 2]: 19.1 mg/mL
SMILES: CC(C)(C)CN(C(=O)c1cnc(N2CC(C)(C)NC2=O)nc1N)c1cccc(C(F)(F)F)c1 [Example 37]
change in vivo at 10 mg/kg (serum lipoproteins; [3]): -39%
change in vivo at 10 mg/kg (serum lipoproteins; [4]): -21%
change in vivo at 10 mg/kg (serum lipoproteins; [5]): -56%
change in vivo at 10 mg/kg (serum lipoproteins; [6]): -30%
change in vivo at 10 mg/kg (serum lipoproteins; [7]): -40%
change in vivo at 30 mg/kg (serum lipoproteins; [3]): -76%
change in vivo at 30 mg/kg (serum lipoproteins; [4]): -49%
change in vivo at 30 mg/kg (serum lipoproteins; [5]): -85%
change in vivo at 30 mg/kg (serum lipoproteins; [6]): -48%
change in vivo at 30 mg/kg (serum lipoproteins; [7]): -75%

1 part by mass dissolves in ... parts by H2O [1, 8]: 15.3 parts by H2 O
solubility [1, 2]: 61.3 mg/mL
SMILES: CC(C)CC(C)N(C(=O)c1cnc(N2CC(C)(C)NC2=O)nc1N)c1cccc(C(F)(F)F)c1 (stereo not drawn) [Example 38]

1 part by mass dissolves in ... parts by H2O [1, 8]: 24.7 parts by H2 O
solubility [1, 2]: 38.9 mg/mL
SMILES: CC(C)CN(C(=O)c1cnc(N2CC(C)NC2=O)nc1N)c1cccc(C(F)(F)F)c1 (stereo not drawn) [Example 114]

1 part by mass dissolves in ... parts by H2O [1, 8]: < 9 parts by H2 O
solubility [1, 2]: > 100 mg/mL
SMILES: C=CC1CN(c2ncc(C(=O)N(C)c3cccc(C(F)(F)F)c3)c(N)n2)C(=O)N1 (stereo not drawn) [Example 72, 4-amino-2-(4-vinyl-2-oxo-1-imidazolidinyl)pyrimidine-5-carboxylic acid N-methyl-N-(3-trifluoromethylphenyl)amide hydrochloride]

1 part by mass dissolves in ... parts by H2O [1, 8]: 24.7 parts by H2 O
solubility [1, 2]: 38.9 mg/mL
SMILES: CC(C)N(C(=O)c1cnc(N2CC(C)(C)NC2=O)nc1N)c1cccc(C(F)(F)F)c1 [Example 3, 4-amino-2-(4,4-dimethyl-2-oxo-1-imidazolidinyl)pyrimidine-5-carboxylic acid N-isopropyl-N-(3-trifluoromethylphenyl)amide]

1 part by mass dissolves in ... parts by H2O [1, 8]: 13.1 parts by H2 O
solubility [1, 2]: 71.1 mg/mL
SMILES: CC1(C)CN(c2ncc(C(=O)N(CC3CC3)c3cccc(C(F)(F)F)c3)c(N)n2)C(=O)N1 [No. 9 (Table 2)]
